Measured values taken from US12208088B2 (Genentech, Inc., priority 2018, dated 2025).

target: HPK1 (Homo sapiens (Human), UniProt Q92918); test: HPK1 Lantha binding assay ("Lanth"); details: binding assays; Morrison Ki fit
Experimental: Example B2: HPK1 Lantha Binding Assay (“Lanth”)
Procedure: I. Compound Dilution:
The compounds to be tested were diluted by preparing 12.5 uL/well of 5 mM compound (100×) in columns 2 and 13 and 10 ul/well of DMSO in columns 3-12, 14-23, and wells A1-H1 and I24-P24 of the compound plate using a Bravo liquid handling platform. For the reference compound, the top concentration was 1 mM. To the plate was added 10 ul 2 mM staurosporine in wells J1-P1 and A24-H24. A 11 point 5-fold compound serial dilution was performed using the Bravo liquid handling platform. From the plate were transferred 2.5 ul of the solutions from column 2 and column 13 to the 10 ul of DMSO in columns 3 and 14 & so on. The compound plate was centrifuged at 2500 rpm for 1 min. From the compound plate was transferred 80 nl of the compounds into an assay plate using the Echo liquid handler system. One compound plate makes two assay plates. Each assay plate is sealed and stored in an N2 cabinet.
The following assay concentrations and times were used: 2 nM HPK1, 2 nM Eu-Anti-GST Ab, and 15 nM Tracer222, with 60 min incubation time.
III. HPK Lantha Binding Assay:
For the binding assay, 4 ul 2×HPK1 and Eu-anti-GST antibody were added to each well of the assay plate using a Multidrop reagent dispenser. The solutions were incubated in a 23 C incubator for 1 h. To each well of the assay plate was added 4 ul 2× Tracer-222 using a Multidrop reagent dispenser. The solutions were again incubated in a 23 C incubator for 1 h. The results of the assay were read using an Envision plate reader with the following parameters: TR_FRET, 340 ex/615 and 665em; 100 usec Delay; and 200 usec integration.
Compound Ki was analyzed using Morrison ki fit model in XL-fit • a. fit=(1−((((E+x)+(Ki*(1+(S/Kd))))−(((((E+x)+(Ki*(1+(S/Kd))))^2)−((4*E)*x))^0.5))/(2*E))) • res=(y−fit) • b. Parameters: • E=enzyme concentration • S=Tracer222 concentration, Kd=Tracer222 Kd • All measurements reported using the same units (uM)
Exemplary compounds were tested in the binding assays.

Sequence of HPK1 (Q92918 1-346 limits assumed): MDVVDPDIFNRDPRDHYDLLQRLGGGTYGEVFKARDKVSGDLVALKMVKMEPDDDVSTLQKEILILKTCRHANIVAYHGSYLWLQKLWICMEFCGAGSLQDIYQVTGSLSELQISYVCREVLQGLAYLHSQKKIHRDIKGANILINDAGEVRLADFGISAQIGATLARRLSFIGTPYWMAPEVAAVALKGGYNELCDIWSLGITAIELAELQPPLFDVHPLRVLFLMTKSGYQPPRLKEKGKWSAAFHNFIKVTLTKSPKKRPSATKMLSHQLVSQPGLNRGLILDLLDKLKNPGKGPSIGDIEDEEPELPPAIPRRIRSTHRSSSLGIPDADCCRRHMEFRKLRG

SMILES	Ki
CN(C)C(=O)c1c(N)ccc(-c2cnc3c(c2Cl)[C@]2(CC[C@H](n4cccn4)C2)CN3)c1F (relative stereo) [Compound 126a, 6-Amino-3-((1R,3S)-4′-chloro-3-(1H-pyrazol-1-yl)-1′,2′-dihydrospiro[cyclopentane-1,3′-pyrrolo[2,3-b]pyridin]-5′-yl)-2-fluoro-N,N-dimethylbenzamide]	0.0185 µM
CN(C)C(=O)c1c(N)ccc(-c2cnc3c(c2Cl)[C@]2(CC[C@H](CN)C2)CN3)c1F (relative stereo) [Compound 127a, 6-Amino-3-((1R,3S)-3-(aminomethyl)-4′-chloro-1′,2′-dihydrospiro[cyclopentane-1,3′-pyrrolo[2,3-b]pyridin]-5′-yl)-2-fluoro-N,N-dimethylbenzamide]	0.165 µM
CN(C)C(=O)c1c(N)ccc(-c2cnc3c(c2Cl)[C@]2(CC[C@](C)(C(N)=O)C2)CN3)c1F (relative stereo) [Compound 132a, (1R,3S)-5′-(4-Amino-3-(dimethylcarbamoyl)-2-fluorophenyl)-4′-chloro-3-methyl-1′,2′-dihydrospiro[cyclopentane-1,3′-pyrrolo[2,3-b]pyridine]-3-carboxamide]	0.00208 µM
CN(C)C(=O)c1c(N)ccc(-c2cnc3c(c2Cl)[C@]2(CC[C@H](n4ccc(N)n4)C2)CN3)c1F (relative stereo) [Compound 133a, 6-Amino-3-((1R,3S)-3-(3-amino-1H-pyrazol-1-yl)-4′-chloro-1′,2′-dihydrospiro[cyclopentane-1,3′-pyrrolo[2,3-b]pyridin]-5′-yl)-2-fluoro-N,N-dimethylbenzamide]	0.034 µM
CN(C)C(=O)c1c(N)ccc(-c2cnc3c(c2Cl)[C@]2(CC[C@H](n4nccc4N)C2)CN3)c1F (relative stereo) [Compound 134a, 6-Amino-3-((1R,3S)-3-(5-amino-1H-pyrazol-1-yl)-4′-chloro-1′,2′-dihydrospiro[cyclopentane-1,3′-pyrrolo[2,3-b]pyridin]-5′-yl)-2-fluoro-N,N-dimethylbenzamide]	0.0161 µM
CN(C)C(=O)c1c(N)ccc(-c2cnc3c(c2Cl)[C@]2(CC[C@H](CC(N)=O)C2)CN3)c1F (relative stereo) [Compound 135a, 6-Amino-3-((1R,3S)-3-(2-amino-2-oxoethyl)-4′-chloro-1′,2′-dihydrospiro[cyclopentane-1,3′-pyrrolo[2,3-b]pyridin]-5′-yl)-2-fluoro-N,N-dimethylbenzamide]	0.00716 µM
CC[C@H]1C[C@@]12CNc1ncc(-c3ccc(N)c(C(=O)N(C)C)c3F)c(Cl)c12 (relative stereo) [Compound 150a, 6-Amino-3-((1R,2S)-4′-chloro-2-ethyl-1′,2′-dihydrospiro[cyclopropane-1,3′-pyrrolo[2,3-b]pyridin]-5′-yl)-2-fluoro-N,N-dimethylbenzamide]	0.0033 µM
CC[C@@H]1C[C@@]12CNc1ncc(-c3ccc(N)c(C(=O)N(C)C)c3F)c(Cl)c12 (relative stereo) [Compound 150c, 6-Amino-3-((1R,2R)-4′-chloro-2-ethyl-1′,2′-dihydrospiro[cyclopropane-1,3′-pyrrolo[2,3-b]pyridin]-5′-yl)-2-fluoro-N,N-dimethylbenzamide]	0.00251 µM
CN(C)C(=O)c1c(N)ccc(-c2cnc3c(c2Cl)[C@]2(CC[C@@](C)(C#N)C2)CN3)c1F (relative stereo) [Compound 151a, 6-Amino-3-((1R,3R)-4′-chloro-3-cyano-3-methyl-1′,2′-dihydrospiro[cyclopentane-1,3′-pyrrolo[2,3-b]pyridin]-5′-yl)-2-fluoro-N,N-dimethylbenzamide]	0.042 µM
CC[C@]1(C#N)CC[C@@]2(CNc3ncc(-c4ccc(N)c(C(=O)N(C)C)c4F)c(Cl)c32)C1 (relative stereo) [Compound 152a, 6-Amino-3-((1R,3S)-4′-chloro-3-cyano-3-ethyl-1′,2′-dihydrospiro[cyclopentane-1,3′-pyrrolo[2,3-b]pyridin]-5′-yl)-2-fluoro-N,N-dimethylbenzamide]	0.00435 µM
CC[C@]1(C(N)=O)CC[C@@]2(CNc3ncc(-c4ccc(N)c(C(=O)N(C)C)c4F)c(Cl)c32)C1 (relative stereo) [Compound 153a, (1R,3S)-5′-(4-Amino-3-(dimethylcarbamoyl)-2-fluorophenyl)-4′-chloro-3-ethyl-1′,2′-dihydrospiro[cyclopentane-1,3′-pyrrolo[2,3-b]pyridine]-3-carboxamide]	0.00716 µM
Cc1noc([C@@]2(C)CC[C@@]3(CNc4ncc(-c5ccc(N)c(C(=O)N(C)C)c5F)c(Cl)c43)C2)n1 (relative stereo) [Compound 156a, 6-Amino-3-((1R,3S)-4′-chloro-3-methyl-3-(3-methyl-1,2,4-oxadiazol-5-yl)-1′,2′-dihydrospiro[cyclopentane-1,3′-pyrrolo[2,3-b]pyridin]-5′-yl)-2-fluoro-N,N-dimethylbenzamide]	0.00263 µM
Cc1nc(N)nn1[C@H]1CC[C@@]2(CNc3ncc(-c4ccc(N)c(C(=O)N(C)C)c4F)c(Cl)c32)C1 (relative stereo) [Compound 157a, 6-Amino-3-((1R,3S)-3-(3-amino-5-methyl-1H-1,2,4-triazol-1-yl)-4′-chloro-1′,2′-dihydrospiro[cyclopentane-1,3′-pyrrolo[2,3-b]pyridin]-5′-yl)-2-fluoro-N,N-dimethylbenzamide]	0.109 µM

The remaining lines, values ahead:

Ki	SMILES
0.132 µM	Cc1nc(N)n([C@H]2CC[C@@]3(CNc4ncc(-c5ccc(N)c(C(=O)N(C)C)c5F)c(Cl)c43)C2)n1 (relative stereo) [Compound 158a, 6-Amino-3-((1R,3S)-3-(5-amino-3-methyl-1H-1,2,4-triazol-1-yl)-4′-chloro-1′,2′-dihydrospiro[cyclopentane-1,3′-pyrrolo[2,3-b]pyridin]-5′-yl)-2-fluoro-N,N-dimethylbenzamide]
0.0322 µM	Cc1ccn([C@H]2CC[C@@]3(CNc4ncc(-c5ccc(N)c(C(=O)N(C)C)c5F)c(Cl)c43)C2)n1 (relative stereo) [Compound 159a, 6-Amino-3-((1R,3S)-4′-chloro-3-(3-methyl-1H-pyrazol-1-yl)-1′,2′-dihydrospiro[cyclopentane-1,3′-pyrrolo[2,3-b]pyridin]-5′-yl)-2-fluoro-N,N-dimethylbenzamide]
0.051 µM	Cc1cc(C#N)n([C@H]2CC[C@@]3(CNc4ncc(-c5ccc(N)c(C(=O)N(C)C)c5F)c(Cl)c43)C2)n1 (relative stereo) [Compound 161a]
0.0693 µM	Cc1cc(C)n([C@H]2CC[C@@]3(CNc4ncc(-c5ccc(N)c(C(=O)N(C)C)c5F)c(Cl)c43)C2)n1 (relative stereo) [Compound 163a, 6-Amino-3-((1R,3S)-4′-chloro-3-(3,5-dimethyl-1H-pyrazol-1-yl)-1′,2′-dihydrospiro[cyclopentane-1,3′-pyrrolo[2,3-b]pyridin]-5′-yl)-2-fluoro-N,N-dimethylbenzamide]
0.00665 µM	CN(C)C(=O)c1c(N)ccc(-c2cnc3c(c2Cl)[C@]2(CC[C@H](n4cc(C(F)(F)F)cn4)C2)CN3)c1F (relative stereo) [Compound 164a, 6-Amino-3-((1R,3S)-4′-chloro-3-(4-(trifluoromethyl)-1H-pyrazol-1-yl)-1′,2′-dihydrospiro[cyclopentane-1,3′-pyrrolo[2,3-b]pyridin]-5′-yl)-2-fluoro-N,N-dimethylbenzamide]
0.00641 µM	COc1c(-c2ccc(N)c(C(=O)N(C)C)c2F)cnc2c1[C@@]1(CN2)C[C@@H]1C (relative stereo) [Compound 165a, 6-Amino-2-fluoro-3-((1R,2S)-4′-methoxy-2-methyl-1′,2′-dihydrospiro[cyclopropane-1,3′-pyrrolo[2,3-b]pyridin]-5′-yl)-N,N-dimethylbenzamide]
0.163 µM	Cc1nccn1[C@H]1CC[C@@]2(CNc3ncc(-c4ccc(N)c(C(=O)N(C)C)c4F)c(Cl)c32)C1 (relative stereo) [Compound 167a, 6-Amino-3-((1R,3S)-4′-chloro-3-(2-methyl-1H-imidazol-1-yl)-1′,2′-dihydrospiro[cyclopentane-1,3′-pyrrolo[2,3-b]pyridin]-5′-yl)-2-fluoro-N,N-dimethylbenzamide]
0.00554 µM	CCc1cnn([C@H]2CC[C@@]3(CNc4ncc(-c5ccc(N)c(C(=O)N(C)C)c5F)c(Cl)c43)C2)c1 (relative stereo) [Compound 170a, 6-Amino-3-((1R,3S)-4′-chloro-3-(4-ethyl-1H-pyrazol-1-yl)-1′,2′-dihydrospiro[cyclopentane-1,3′-pyrrolo[2,3-b]pyridin]-5′-yl)-2-fluoro-N,N-dimethylbenzamide]
0.00658 µM	CN(C)C(=O)c1c(N)ccc(-c2cnc3c(c2Cl)[C@]2(CC[C@H](n4cc(Cl)cn4)C2)CN3)c1F (relative stereo) [Compound 171a, 6-Amino-3-((1R,3S)-4′-chloro-3-(4-chloro-1H-pyrazol-1-yl)-1′,2′-dihydrospiro[cyclopentane-1,3′-pyrrolo[2,3-b]pyridin]-5′-yl)-2-fluoro-N,N-dimethylbenzamide]
